{
  "source": "patent US10406120B2",
  "about": "“Methods and compositions for treating kidney disorders” (Golden Biotechnology Corporation, priority 2013, dated 2019)",
  "key": {"[1]": {"test_system": "NLRP3", "experiment": "AcP-IgAN model: renal NLRP3 mRNA and protein", "assay_type": "in vivo, B cell-deficient mice", "settings": "AcP-IgAN mice", "procedure": "(§1) B cell-deficient mice (B6.129S2-Igh-6tm1Cgn/J) were obtained from the Academia Sinica (Professor John T. Kung, Institute of Molecular Biology), and maintained at the animal center of the National Defense Medical Center, Taipei, Taiwan. AcP-IgAN was induced in the mice by daily injection of purified IgA anti-phosphorylcholine antibodies and pneumococcal C-polysaccharide (PnC) as described previously (Chao, et al., Kidney Int. 70:283-297; 2006). All animal experiments were performed with the approval of the Institutional Animal Care and Use Committee of The National Defense Medical Center, Taiwan, and were consistent with the NIH Guide for the Care and Use of Laboratory Animals.\nTotal cortical kidney RNA was extracted with TriZOL reagents (Invitrogen) from cortical tissue of the kidney. For first-strand cDNA synthesis, 1.5 μg of total RNA was used in a single-round reverse transcriptase reaction. The reaction mixture consisted of 0.9 μl of Oligo (dT) 12 to 18 primer, 1.0 mM deoxyribonucleotide triphosphate (dNTP), 1 μl first strand buffer, 0.4 mM dithiothreitol, 80 U of RNaseout recombinant ribonuclease inhibitor, and 300 U of superscript II RNase H (Invitrogen). Real-time PCR was performed on an ABI Prism 7700 Sequence Detection System (Applied Biosystems, CA). All of the probes and primers were Assays-on-Demand Gene expression products (Applied Biosystems). Real-time PCR reactions were using 10 μl of cDNA, 12.5 μl of TaqMan Universal PCR Master Mix (Applied Biosystems), and 1.25 μl of the specific probe/primer mixed in a total volume of 25 μl. The thermal cycler conditions were as follows: 2 min at 50° C., 10 min at 95° C., 40 cycles of denaturation (15 s at 95° C.), and combined annealing/extension (1 min at 60° C.).\nEach protein sample was run on a 10% SDS-PAGE gel. […] The membrane-bound antibody detected was incubated with chemiluminescent reagent plus (PerkinElmer Life Sciences, MA) and captured on x-ray film."}, "[2]": {"test_system": "NAD(P)H oxidase subunit p47^phox", "experiment": "FSGS model: Western blot of cytosolic p47^phox in kidney", "assay_type": "in vivo, BALB/c mice", "settings": "FSGS mice, day 14 to day 21, vs control FSGS mice", "procedure": "(§2) Experiments described herein were performed on 8-week-old female BALB/c mice. The FSGS mice were injected intravenously with a single dose of adriamycin (0.1 mg/10 g body weight). The mice were given Compound 1 six hours before adriamycin injection by gavage daily till sacrifice. BALB/c mice intraperitoneal injected with normal saline were used as normal controls, while ASLN mice given vehicle (corn oil) by gavage were used as disease controls. Mice were killed at day 7, 14, or 21 after disease induction, and spleen, renal cortical tissue, and blood samples collected and stored appropriately until analysis. All animal experiments were performed with the ethical approval of the Institutional Animal Care and Use Committee of The National Defense Medical Center, Taiwan and performed according to the ethical rules in the NIH Guide for the Care and Use of Laboratory Animals.\nThe preparation of cytoplasmic and nuclear proteins of renal tissues was extracted using the Nuclear Extract Kit (Active Motif, Tokyo, Japan) according to the manufacturer's instructions. Target proteins in the cytoplasmic and/or nuclear fractions of kidney tissue were measured by Western blot analysis using rabbit antibodies against mouse Nrf2, or p47^phox (Santa Cruz). […]"}, "[3]": {"test_system": "MCP-1", "experiment": "AcP-IgAN model: renal MCP-1 mRNA and protein", "assay_type": "in vivo, B cell-deficient mice", "settings": "AcP-IgAN mice", "procedure": "as §1\nFor IHC, formalin fixed and paraffin embedded tissue sections or frozen sections were incubated with against IL-6 (R&D Systems, MN), MCP-1 (Santa Cruz, Calif.), F4/80 (monocytes/macrophages; Serotec, N.C.), collagen IV (Southern Biotech, AL), TGF-β1 (Santa Cruz), phopsho-NFκB p65 (Cell Signaling, MA), CD3 (pan-T cell; Serotec), CD4 (T helper cell; BioLegend, CA), CD8 (cytotoxic T cell), CD11b (macrophages/neutrophils), or CD11c (dendritic cells) (BD Biosciences, CA) antibodies. The FITC-conjugated, Alexa Fluor 488-conjugated (Invitrogen, CA) or horseradish peroxidase (HRP) conjugated secondary antibodies (DAKO, Denmark) were then applied to the sections. Hematoxylin or 4′,6-diamidino-2-phenylindole (DAKO) was used in the counter staining for nuclei.\n(§3) Total cortical kidney RNA was extracted with TriZOL reagents (Invitrogen) from cortical tissue of the kidney. For first-strand cDNA synthesis, 1.5 μg of total RNA was used in a single-round reverse transcriptase reaction. The reaction mixture consisted of 0.9 μl of Oligo (dT) 12 to 18 primer, 1.0 mM deoxyribonucleotide triphosphate (dNTP), 1 μl first strand buffer, 0.4 mM dithiothreitol, 80 U of RNaseout recombinant ribonuclease inhibitor, and 300 U of superscript II RNase H (Invitrogen). Real-time PCR was performed on an ABI Prism 7700 Sequence Detection System (Applied Biosystems, CA). […]"}, "[4]": {"test_system": "IL-6", "experiment": "AcP-IgAN model: serum IL-6 ELISA", "assay_type": "in vivo, B cell-deficient mice", "settings": "AcP-IgAN mice", "procedure": "as §1\nSerum levels of IL-1β (eBiosceience, CA), IL-6 (eBiosceience), IL-18 (MBL, Japan), and MCP-1 (eBiosceience) were measured using commercial ELISA kits according to the manufacturer's instructions."}, "[5]": {"test_system": "GPx", "experiment": "FSGS model: GPx activity in the kidney", "assay_type": "in vivo, BALB/c mice", "settings": "FSGS mice, day 7 until day 21, vs control FSGS mice", "procedure": "as §2\nGPx activity in renal tissues was measured using a commercial Glutathione Peroxidase Assay kit (Cayman, Mich., USA) according to the manufacturer's instructions Enzyme activity was expressed relative to the protein concentration of glomerular homogenates."}, "[6]": {"test_system": "IL-18", "experiment": "AcP-IgAN model: renal IL-18 mRNA and protein", "assay_type": "in vivo, B cell-deficient mice", "settings": "AcP-IgAN mice", "procedure": "as §1\nas §3, with “CA). All of the probes and primers were Assays-on-Demand Gene expression products (Applied Biosystems).” for “CA).”"}, "[7]": {"test_system": "splenocytes", "experiment": "AcP-IgAN model: flow cytometry of T cell activation in splenocytes", "assay_type": "in vivo, B cell-deficient mice", "settings": "AcP-IgAN mice", "procedure": "as §1\nSplenocytes from the mice were treated with Tris-buffered ammonium chloride to eliminate erythrocytes, washed, resuspended in RPMI 1640 supplemented with 10% fetal calf serum, HEPES buffer, L-glutamine, and penicillin/streptomycin (all from Invitrogen). The cells were stained with either surface marker for T or B cell activation. FITC-conjugated anti-mouse CD3, CD4, CD8, or CD19 (B cell) antibodies and phycoerythrin (PE)-conjugated anti-mouse CD69 antibodies (all from BD Biosciences) were analyzed with FACSCalibur (BD Biosciences)."}, "[8]": {"settings": "day 28, vs control AcP-IgAN mice"}, "[9]": {"settings": "day 3, vs control AcP-IgAN mice"}},
  "data": [
    {"smiles": "COC1=C(OC)[C@H](O)[C@H](C/C=C(\\C)CC/C=C(\\C)CCC=C(C)C)[C@@H](C)C1=O", "note": "[Compound 1, Antroquinonol]", "values": [
      {"measurement": "protein levels of NLRP3 in the kidney (increase)", "setting": "[1]; both day 3 and day 28, vs AcP-IgAN mice", "value": "significantly inhibited"},
      {"measurement": "renal NLRP3 mRNA expression levels", "setting": "[1]; day 3", "value": "no effects"},
      {"measurement": "renal mRNA levels of NLRP3", "setting": "[1]; [8]", "value": "substantially reduced"},
      {"measurement": "protein levels of NAD(P)H oxidase subunit p47^phox in kidney (increase in FSGS)", "setting": "[2]", "value": "abolished"},
      {"measurement": "renal expression levels of mRNA and protein of MCP-1", "setting": "[3]; day 3", "value": "no such effect"},
      {"measurement": "renal expression levels of mRNA of MCP-1", "setting": "[3]; [8]", "value": "significantly reduced"},
      {"measurement": "renal expression levels of protein of MCP-1", "setting": "[3]; [8]", "value": "significantly reduced"},
      {"measurement": "serum IL-6 levels", "setting": "[4]; day 3, between control AcP-IgAN, AcP-IgAN+Antroq and normal control mice", "value": "no difference"},
      {"measurement": "serum levels of IL-6", "setting": "[4]; [8]", "value": "substantially decreased"},
      {"measurement": "GPx activity in the kidney", "setting": "[5]", "value": "recovered GPx activity"},
      {"measurement": "renal mRNA expression levels of IL-18 (elevation)", "setting": "[6]; day 3 until day 28, real-time PCR", "value": "greatly inhibited"},
      {"measurement": "renal IL-18 protein production", "setting": "[6]; only at day 28", "value": "significantly inhibited"},
      {"measurement": "percentage of CD3^+/CD69^+ T cells in splenocytes", "setting": "[7]; [9]", "value": "significant reduction"},
      {"measurement": "percentage of CD4^+/CD69^+ T cells in splenocytes", "setting": "[7]; [9]", "value": "no significant difference"},
      {"measurement": "percentage of CD8^+/CD69^+ T cells in splenocytes", "setting": "[7]; [9]", "value": "no significant difference"},
      {"measurement": "percentage of each of the three subtypes of T cells (CD3^+/CD69^+, CD4^+/CD69^+, CD8^+/CD69^+)", "setting": "[7]; day 28", "value": "no different from that of normal controls"}
    ]}
  ]
}
